Experimental data reported in patent US20090047269A1, “METABOLOMIC CANCER TARGETS” (The Regents of the University of Michigan, priority 2007, published 2009).

Key:
Assay type in all cases: cell-based
[1] = system: immortalized benign RWPE prostate cells; experiment: Modified Boyden chamber matrigel invasion assay, RWPE cells; settings: for induction of invasion upon exogenous addition / increased invasion upon sarcosine addition compared to control: benign prostate epithelial cells; for increased invasion upon sarcosine addition compared to control: alanine as control
Procedure: To investigate the biological role of sarcosine elevation in prostate cancer, prostate cancer cell lines VCaP, DU145, 22RV1 and LNCaP and their benign epithelial counterparts, primary benign prostate epithelial cells PrEC and immortalized benign RWPE prostate cells were used.
To determine if sarcosine plays a role in this process, it was added directly to non-invasive benign prostate epithelial cells. Alanine (an isomer of sarcosine) was used as a control for these experiments. […] The present invention is not limited to a particular mechanism. Indeed, an understanding of the mechanism is not necessary to practice the present invention.
To understand the role of sarcosine in prostate cancer progression, levels of the metabolite was measured in a panel of prostate-derived cell lines. […] The knock down studies were carried out using specific siRNA and the extent of target inhibition was assessed using Q-PCR. The in vitro Boyden chamber assay was used to qualify the modulation in the invasiveness of the knock down cells.

[2] = system: EGFR; experiment: Immunoblot analysis of EGFR phosphorylation and total EGFR; settings: for total EGFR levels upon treatment: prostate epithelial cells
[3] = system: src; experiment: Immunoblot analysis of src phosphorylation; settings: prostate epithelial cells (PrEC), compared to alanine-treated controls
Excerpt: (§1) Also total EGFR levels were elevated upon treatment with alanine or sarcosine. […] This observation was further strengthened using both antibody-mediated inhibition of EGFRactivity and siRNA-mediated knock-down of receptor levels.

[4] = system: p38MAPK; experiment: Immunoblot analysis of p38MAPK phosphorylation; settings: sarcosine-treated PrEC samples
Excerpt: as §1

[5] = RWPE cells, control non-target siRNA-transfected

NCC(=O)O [glycine]
invasion upon amino acid addition, mean±SEM ([1]; RWPE cells with GNMT knockdown): 0.20±0.03
invasion upon amino acid addition, mean±SEM [1, 5]: 0.46±0.04
induction of invasion upon exogenous addition [1]: induced invasion in these cells, although to a lesser degree than sarcosine

C[C@H](N)C(=O)O [alanine, reference compound]
total EGFR levels upon treatment [2]: elevated

CNCC(=O)O [sarcosine]
increased invasion upon sarcosine addition compared to control ([1]; 25 μM): 1.64 fold
increased invasion upon sarcosine addition compared to control ([1]; 50 μM): 2.57 fold
invasion upon amino acid addition, mean±SEM ([1]; RWPE cells with GNMT knockdown): 0.64±0.07
invasion upon amino acid addition, mean±SEM [1, 5]: 0.65±0.05
induction of invasion upon exogenous addition [1]: imparted an invasive phenotype
total EGFR levels upon treatment [2]: elevated
EGFR phosphorylation upon treatment ([2]; prostate epithelial cells (PrEC), compared to alanine-treated controls): time-dependent increase
src phosphorylation upon treatment [3]: time-dependent increase
p38MAPK phosphorylation upon treatment [4]: phosphorylation of p38MAPK
